Data: patent publication US8802597B2, “Herbicidal pyrimidines” (E I du Pont de Nemours and Company, priority 2003, dated 2014)

What was measured:
Assay type in all cases: in vivo
[1] = system: morningglory (Ipomoea coccinea); assay: Test B pre/postemergence
Procedure, shortened: (§1)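 Under greenhouse conditions, seeded pots and young plants (1- to 4-leaf, 2 to 18 cm) were treated at the same time with test chemicals in a non-phytotoxic solvent mixture containing surfactant. Response was assessed visually after 13 to 15 days, from 0 (no effect) to 100 (complete control).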

[2] = system: Surinam grass (Brachiaria decumbens); assay: Test B pre/postemergence
Procedure, shortened: as §1

[3] = system: wheat (Triticum aestivum); assay: Test B pre/postemergence
Procedure, shortened: as §1

[4] = system: giant foxtail (Setaria faberii); assay: Test B pre/postemergence
Procedure, shortened: as §1

corn (Zea mays) = assay: Test B pre/postemergence
Procedure, shortened: as §1

[5] = system: lambsquarters (Chenopodium album); assay: Test B pre/postemergence
Procedure, shortened: as §1

[6] = system: velvetleaf (Abutilon theophrasti); assay: Test B pre/postemergence
Procedure, shortened: as §1

[7] = system: pigweed (Amaranthus retroflexus); assay: Test B pre/postemergence
Procedure, shortened: as §1

[8] = system: crabgrass (Digitaria sanguinalis); assay: Test B pre/postemergence
Procedure, shortened: as §1

[9] = system: cocklebur (Xanthium strumarium); assay: Test B pre/postemergence
Procedure, shortened: as §1

[10] = system: barnyardgrass (Echinochloa crus-galli); assay: Test B pre/postemergence
Procedure, shortened: as §1

wild oat (Avena fatua) = assay: Test B postemergence; conditions: for Oat, Wild plant response rating: 125 g ai/ha, scale 0 to 100 (0 no effect, 100 complete control); for Plant response rating, Oat, Wild: 500 g ai/ha, scale 0 to 100
Procedure, shortened: as §1

[11] = system: blackgrass (Alopecurus myosuroides); assay: Test B postemergence; conditions: for Blackgrass plant response rating: 125 g ai/ha, scale 0 to 100 (0 no effect, 100 complete control); for Plant response rating, Blackgrass: 500 g ai/ha, scale 0 to 100
Procedure, shortened: as §1

[12] = system: duck salad (Heteranthera limosa); assay: Test B flooded paddy test; conditions: Flood, 1000 g ai/ha; scale 0 to 100
Procedure, shortened: (§2)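 Visual injury scoring (0 = no effect, 100 = complete control) versus controls made 13 to 15 days after treatment in the greenhouse. Test species were grown in flooded paddy to the 2-leaf stage: rice, barnyardgrass, umbrella sedge, duck salad.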

rice (Oryza sativa) = assay: Test B flooded paddy test; conditions: Flood, 1000 g ai/ha; scale 0 to 100
Procedure, shortened: as §2

[13] = system: umbrella sedge (Cyperus difformis); assay: Test B flooded paddy test; conditions: Flood, 1000 g ai/ha; scale 0 to 100
Procedure, shortened: as §2

[14] = system: barnyardgrass (Echinochloa crus-galli); assay: Test B flooded paddy test; conditions: Flood, 1000 g ai/ha; scale 0 (no effect) to 100 (complete control)
Procedure, shortened: as §2

[15] = Postemergence, 125 g ai/ha, scale 0 to 100 (0 no effect, 100 complete control)
[16] = Postemergence, 500 g ai/ha, scale 0 to 100
[17] = Preemergence, 125 g ai/ha, scale 0 to 100 (0 no effect, 100 complete control)
[18] = Preemergence, 500 g ai/ha, scale 0 to 100 (0 no effect, 100 complete control)

## COC(=O)c1nc(-c2ccc(C(F)(F)F)cc2)nc(N)c1Cl [Compound 44]
[1]; [15]
  Morningglory plant response rating: 80
[1]; [16]
  Plant response rating, Morningglory: 100
[1]; [17]
  Plant response rating, Morningglory: 10
[1]; [18]
  Morningglory plant response rating: 40
[2]; [16]
  Plant response rating, Surinam Grass: 50
[2]; [17]
  Plant response rating, Surinam Grass: 40
[2]; [18]
  Surinam Grass plant response rating: 60
[3]; [15]
  Wheat plant response rating: 0
[3]; [16]
  Plant response rating, Wheat: 30
[3]; [17]
  Plant response rating, Wheat: 30
[3]; [18]
  Plant response rating, Wheat: 60
[4]; [17]
  Plant response rating, Foxtail, Giant: 20
[4]; [18]
  Foxtail, Giant plant response rating: 40
Corn (Zea mays); [15]
  Corn plant response rating: 30
Corn (Zea mays); [16]
  Plant response rating, Corn: 70
Corn (Zea mays); [17]
  Plant response rating, Corn: 0
Corn (Zea mays); [18]
  Corn plant response rating: 0
[5]; [15]
  Lambsquarters plant response rating: 90
[5]; [16]
  Plant response rating, Lambsquarters: 90
[5]; [18]
  Lambsquarters plant response rating: 60
[6]; [15]
  Velvetleaf plant response rating: 80
[6]; [16]
  Plant response rating, Velvetleaf: 90
[6]; [17]
  Plant response rating, Velvetleaf: 30
[6]; [18]
  Velvetleaf plant response rating: 80
[7]; [15]
  Pigweed plant response rating: 80
[7]; [16]
  Plant response rating, Pigweed: 90
[7]; [17]
  Plant response rating, Pigweed: 70
[7]; [18]
  Pigweed plant response rating: 80
[8]; [15]
  Crabgrass plant response rating: 70
[8]; [16]
  Plant response rating, Crabgrass: 80
[8]; [17]
  Plant response rating, Crabgrass: 40
[8]; [18]
  Crabgrass plant response rating: 80
[9]; [15]
  Cocklebur plant response rating: 90
[9]; [16]
  Plant response rating, Cocklebur: 100
[9]; [17]
  Plant response rating, Cocklebur: 10
[9]; [18]
  Cocklebur plant response rating: 80
[10]; [15]
  Barnyardgrass plant response rating: 40
[10]; [16]
  Plant response rating, Barnyardgrass: 50
[10]; [17]
  Plant response rating, Barnyardgrass: 0
[10]; [18]
  Barnyardgrass plant response rating: 10
Wild oat (Avena fatua)
  Oat, Wild plant response rating: 0
  Plant response rating, Oat, Wild: 0
[11]
  Blackgrass plant response rating: 30
  Plant response rating, Blackgrass: 40
[12]
  Plant response rating, Ducksalad: 90
Rice (Oryza sativa)
  Plant response rating, Rice: 0
[13]
  Plant response rating, Sedge, Umbrella: 80
[14]
  Plant response rating, Barnyardgrass: 0

## CC(C)COC(=O)c1nc(C2CC2)nc(N)c1Br [Compound 17]
[1]; [15]
  Morningglory plant response rating: 100
[1]; [16]
  Plant response rating, Morningglory: 100
[1]; [17]
  Plant response rating, Morningglory: 100
[1]; [18]
  Morningglory plant response rating: 100
[2]; [15]
  Surinam Grass plant response rating: 30
[2]; [16]
  Plant response rating, Surinam Grass: 80
[2]; [17]
  Plant response rating, Surinam Grass: 30
[2]; [18]
  Surinam Grass plant response rating: 90
[3]; [15]
  Wheat plant response rating: 0
[3]; [16]
  Plant response rating, Wheat: 60
[3]; [17]
  Plant response rating, Wheat: 40
[3]; [18]
  Wheat plant response rating: 60
[4]; [15]
  Foxtail, Giant plant response rating: 10
[4]; [16]
  Plant response rating, Foxtail, Giant: 70
[4]; [17]
  Plant response rating, Foxtail, Giant: 20
[4]; [18]
  Foxtail, Giant plant response rating: 70
Corn (Zea mays); [15]
  Corn plant response rating: 0
Corn (Zea mays); [16]
  Plant response rating, Corn: 80
Corn (Zea mays); [17]
  Plant response rating, Corn: 0
Corn (Zea mays); [18]
  Corn plant response rating: 60
[5]; [15]
  Lambsquarters plant response rating: 100
[5]; [16]
  Plant response rating, Lambsquarters: 100
[5]; [17]
  Plant response rating, Lambsquarters: 90
[5]; [18]
  Lambsquarters plant response rating: 100
[6]; [15]
  Velvetleaf plant response rating: 60
[6]; [16]
  Plant response rating, Velvetleaf: 100
[6]; [17]
  Plant response rating, Velvetleaf: 70
[6]; [18]
  Velvetleaf plant response rating: 90
[7]; [15]
  Pigweed plant response rating: 70
[7]; [16]
  Plant response rating, Pigweed: 90
[7]; [17]
  Plant response rating, Pigweed: 80
[7]; [18]
  Pigweed plant response rating: 100
[8]; [15]
  Crabgrass plant response rating: 20
[8]; [16]
  Plant response rating, Crabgrass: 50
[8]; [17]
  Plant response rating, Crabgrass: 70
[8]; [18]
  Crabgrass plant response rating: 100
[9]; [15]
  Cocklebur plant response rating: 100
[9]; [16]
  Plant response rating, Cocklebur: 100
[9]; [17]
  Plant response rating, Cocklebur: 80
[9]; [18]
  Cocklebur plant response rating: 90
[10]; [15]
  Barnyardgrass plant response rating: 20
[10]; [16]
  Plant response rating, Barnyardgrass: 90
[10]; [17]
  Plant response rating, Barnyardgrass: 20
[10]; [18]
  Barnyardgrass plant response rating: 80
Wild oat (Avena fatua)
  Oat, Wild plant response rating: 0
  Plant response rating, Oat, Wild: 50
[11]
  Blackgrass plant response rating: 0
  Plant response rating, Blackgrass: 70
[12]
  Plant response rating, Ducksalad: 90
Rice (Oryza sativa)
  Plant response rating, Rice: 50
[13]
  Plant response rating, Sedge, Umbrella: 50
[14]
  Plant response rating, Barnyardgrass: 80
